# Experimental data from article PMC8204306 (ACS Infectious Diseases, 2021).
# Molecular target: EchA19 (Mycobacterium tuberculosis, UniProt O53561)
# Sequence (O53561 whole entry): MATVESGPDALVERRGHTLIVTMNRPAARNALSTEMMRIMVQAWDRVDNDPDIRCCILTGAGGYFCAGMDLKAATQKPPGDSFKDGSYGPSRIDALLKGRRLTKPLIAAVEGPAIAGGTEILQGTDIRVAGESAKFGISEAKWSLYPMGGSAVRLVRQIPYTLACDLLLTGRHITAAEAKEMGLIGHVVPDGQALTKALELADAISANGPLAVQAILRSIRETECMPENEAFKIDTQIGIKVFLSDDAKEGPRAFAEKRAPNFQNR
structure (smiles),measurement,value
C[C@H](/C=C/C(=O)SCCNC(=O)CCNC(=O)[C@H](O)C(C)(C)COP(=O)(O)OP(=O)(O)OC[C@H]1O[C@@H](n2cnc3c(N)ncnc32)[C@H](O)[C@@H]1OP(=O)(O)O)[C@H]1CC[C@H]2[C@@H]3CCC4=CC(=O)CC[C@]4(C)[C@H]3CC[C@]12C [3-OCDO-CoA],hydration product identified by MALDI MS and 1H NMR,both EchA19 and ChsH3 performed the hydration reaction on 3-OCDO-CoA
